According to ChEMBL document CHEMBL1201862, “PubChem BioAssay data set” (2004):
Values joined by “and” are separate entries in the source; they are usually repeats but may differ in a detail not shown here. Identical values can stand only once. Active and inactive are the calls of the source.

What was measured:
[1] = biological target: Cytochrome P450 2C9 (Homo sapiens, UniProt P11712)
[2] = Luminescence Cell-Based Dose Retest to Confirm Inhibitors of Cancer Stem Cells. [Related pubchem assays (depositor defined):AID2717, AID2721]; format: functional; conditions: Homo sapiens
[3] = biological target: T1, Ubiquitin-conjugating enzyme E2 N (Homo sapiens, UniProt P61088); format: functional;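 further: Dose-response confirmation in a TR-FRET assay detecting UBC13-driven polyubiquitin chain formation, inhibition measured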
T1 sequence (P61088 whole entry): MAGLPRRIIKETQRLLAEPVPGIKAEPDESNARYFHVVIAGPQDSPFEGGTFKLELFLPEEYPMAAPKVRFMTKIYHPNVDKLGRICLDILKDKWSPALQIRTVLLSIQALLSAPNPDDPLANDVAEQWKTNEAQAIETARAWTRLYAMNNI

[4] = inhibitors of HIV Env-driven cell fusion, dose response, cherry-pick (AID 652057); format: functional, cell-based
[5] = ZM109 Env clade C HIV-1 fusion inhibitors, dose response, HeLa effector, CEM target cells, luciferase, cherry-pick (AID 652058); format: functional, cell-based
[6] = off-target signal loss in HeLa-CEM21 co-culture – HeLa F-luc CTL cells, cherry-picked, counter-screen for HIV-1 Env fusion inhibitor project, dose response (AID 652040); format: functional, cell-based;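 further: potency for signal decrease marking cytotoxic or nonspecific inhibition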
[7] = inhibitors of clade B AD8 Env fusion, dose response, cell-based, cherry-pick (AID 652062); format: functional;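 further: luciferase signal from cell-cell fusion driven by HIV-1 clade B AD8 Env; potency is for inhibitors of fusion seen as a drop in luminescence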
[8] = biological target: Fatty acid synthase (Homo sapiens, UniProt P49327); assay: FAS thioesterase domain inhibitors, dose response, biochemical, kinetic fluorescence intensity (AID 624326); format: functional;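 further: rate of fluorescence rise from hydrolysis of a fluorogenic O-methyl fluorescein ester substrate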
Fatty acid synthase, sequence (P49327 whole entry, the tested form may be a part): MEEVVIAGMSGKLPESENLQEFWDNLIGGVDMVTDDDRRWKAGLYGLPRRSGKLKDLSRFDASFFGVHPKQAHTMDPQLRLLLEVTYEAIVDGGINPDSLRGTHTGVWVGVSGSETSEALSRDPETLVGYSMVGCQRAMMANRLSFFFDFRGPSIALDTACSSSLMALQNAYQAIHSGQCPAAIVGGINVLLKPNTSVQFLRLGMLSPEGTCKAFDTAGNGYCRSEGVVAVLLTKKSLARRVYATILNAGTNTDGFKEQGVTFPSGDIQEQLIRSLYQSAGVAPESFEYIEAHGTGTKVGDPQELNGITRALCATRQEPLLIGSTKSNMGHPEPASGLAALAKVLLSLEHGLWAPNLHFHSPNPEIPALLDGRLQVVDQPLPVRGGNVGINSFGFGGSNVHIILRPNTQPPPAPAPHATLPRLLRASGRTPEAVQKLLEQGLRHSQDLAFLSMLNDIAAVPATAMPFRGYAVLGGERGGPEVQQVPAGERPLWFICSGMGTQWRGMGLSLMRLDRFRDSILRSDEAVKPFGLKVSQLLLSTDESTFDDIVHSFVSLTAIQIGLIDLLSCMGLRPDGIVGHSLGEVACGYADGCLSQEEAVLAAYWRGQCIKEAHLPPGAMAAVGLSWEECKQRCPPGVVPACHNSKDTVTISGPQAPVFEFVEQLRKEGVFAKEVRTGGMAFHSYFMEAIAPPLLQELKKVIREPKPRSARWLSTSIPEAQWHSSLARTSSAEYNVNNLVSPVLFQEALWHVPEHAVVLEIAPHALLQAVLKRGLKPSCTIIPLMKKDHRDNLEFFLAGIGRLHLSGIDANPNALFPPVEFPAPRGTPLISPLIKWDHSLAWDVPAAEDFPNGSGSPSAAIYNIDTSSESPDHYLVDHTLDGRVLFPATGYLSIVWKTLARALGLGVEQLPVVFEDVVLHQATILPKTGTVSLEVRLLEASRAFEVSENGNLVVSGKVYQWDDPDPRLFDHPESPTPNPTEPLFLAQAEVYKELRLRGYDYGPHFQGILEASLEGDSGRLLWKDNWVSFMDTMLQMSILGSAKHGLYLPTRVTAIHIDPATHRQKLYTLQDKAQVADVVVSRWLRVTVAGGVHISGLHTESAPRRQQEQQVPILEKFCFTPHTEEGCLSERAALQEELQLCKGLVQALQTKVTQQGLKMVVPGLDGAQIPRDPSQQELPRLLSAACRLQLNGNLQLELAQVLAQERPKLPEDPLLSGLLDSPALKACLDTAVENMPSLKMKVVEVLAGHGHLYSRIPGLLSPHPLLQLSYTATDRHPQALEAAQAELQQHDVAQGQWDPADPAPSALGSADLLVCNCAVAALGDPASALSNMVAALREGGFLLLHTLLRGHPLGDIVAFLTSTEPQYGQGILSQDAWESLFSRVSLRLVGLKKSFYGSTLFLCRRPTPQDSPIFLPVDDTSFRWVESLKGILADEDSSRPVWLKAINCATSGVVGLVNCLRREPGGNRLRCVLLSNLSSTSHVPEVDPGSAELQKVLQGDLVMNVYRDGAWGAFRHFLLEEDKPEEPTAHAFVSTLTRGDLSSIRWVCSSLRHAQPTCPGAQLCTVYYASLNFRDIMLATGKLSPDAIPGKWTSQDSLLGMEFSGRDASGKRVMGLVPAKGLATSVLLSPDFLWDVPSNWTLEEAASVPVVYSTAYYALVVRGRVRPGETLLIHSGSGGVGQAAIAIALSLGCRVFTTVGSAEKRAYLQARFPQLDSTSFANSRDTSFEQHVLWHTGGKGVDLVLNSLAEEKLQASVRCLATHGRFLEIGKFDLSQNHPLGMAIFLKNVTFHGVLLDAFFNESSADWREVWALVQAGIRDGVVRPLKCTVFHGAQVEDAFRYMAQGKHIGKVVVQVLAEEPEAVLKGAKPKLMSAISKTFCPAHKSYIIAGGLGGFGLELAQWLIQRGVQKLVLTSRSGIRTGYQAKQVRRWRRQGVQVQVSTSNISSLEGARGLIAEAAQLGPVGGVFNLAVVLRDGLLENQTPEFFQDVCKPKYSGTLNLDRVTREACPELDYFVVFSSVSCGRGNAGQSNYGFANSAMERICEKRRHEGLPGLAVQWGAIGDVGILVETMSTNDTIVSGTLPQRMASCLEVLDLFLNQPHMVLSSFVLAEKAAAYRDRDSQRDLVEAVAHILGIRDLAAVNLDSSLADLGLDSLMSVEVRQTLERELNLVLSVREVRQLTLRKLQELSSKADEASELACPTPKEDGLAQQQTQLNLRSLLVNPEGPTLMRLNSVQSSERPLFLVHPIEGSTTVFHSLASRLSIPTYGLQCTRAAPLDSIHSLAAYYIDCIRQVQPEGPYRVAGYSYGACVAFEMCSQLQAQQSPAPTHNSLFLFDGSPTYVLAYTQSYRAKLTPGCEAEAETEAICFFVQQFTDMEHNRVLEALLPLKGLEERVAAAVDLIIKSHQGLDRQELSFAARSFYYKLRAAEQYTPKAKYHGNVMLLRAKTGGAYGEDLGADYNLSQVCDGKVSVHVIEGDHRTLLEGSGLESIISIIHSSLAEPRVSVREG

[9] = biological target: T2, DNA repair protein RAD52 homolog (Homo sapiens, UniProt P43351); format: functional, biochemical
T2 sequence (P43351 whole entry): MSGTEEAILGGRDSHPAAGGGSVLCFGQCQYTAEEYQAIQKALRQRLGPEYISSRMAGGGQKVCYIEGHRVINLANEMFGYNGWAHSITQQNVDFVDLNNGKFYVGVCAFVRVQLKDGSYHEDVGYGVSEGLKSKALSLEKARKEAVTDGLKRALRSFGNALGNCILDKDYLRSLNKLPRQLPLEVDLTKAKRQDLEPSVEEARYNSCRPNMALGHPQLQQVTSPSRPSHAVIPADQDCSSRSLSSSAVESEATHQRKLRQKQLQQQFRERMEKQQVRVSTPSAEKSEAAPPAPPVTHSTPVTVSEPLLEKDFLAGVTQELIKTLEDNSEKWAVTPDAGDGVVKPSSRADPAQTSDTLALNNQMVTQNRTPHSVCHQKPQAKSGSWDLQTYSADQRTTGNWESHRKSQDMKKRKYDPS

[10] = biological target: T3, Heat shock factor protein 1 (Mus musculus, UniProt P38532); assay: HSF1 potentiators in luciferase reporter cells, confirmation, cell-based, NIH3T3, luminescence, dose retest (AID 435004); format: functional;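 further: stress induced by proteasome inhibitor MG132 added 30 min after compound; luciferase reporter driven by HSF1 response element in NIH3T3 cells; actives raise luminescence as potentiators of the MG132 stress response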
T3 sequence (P38532 whole entry): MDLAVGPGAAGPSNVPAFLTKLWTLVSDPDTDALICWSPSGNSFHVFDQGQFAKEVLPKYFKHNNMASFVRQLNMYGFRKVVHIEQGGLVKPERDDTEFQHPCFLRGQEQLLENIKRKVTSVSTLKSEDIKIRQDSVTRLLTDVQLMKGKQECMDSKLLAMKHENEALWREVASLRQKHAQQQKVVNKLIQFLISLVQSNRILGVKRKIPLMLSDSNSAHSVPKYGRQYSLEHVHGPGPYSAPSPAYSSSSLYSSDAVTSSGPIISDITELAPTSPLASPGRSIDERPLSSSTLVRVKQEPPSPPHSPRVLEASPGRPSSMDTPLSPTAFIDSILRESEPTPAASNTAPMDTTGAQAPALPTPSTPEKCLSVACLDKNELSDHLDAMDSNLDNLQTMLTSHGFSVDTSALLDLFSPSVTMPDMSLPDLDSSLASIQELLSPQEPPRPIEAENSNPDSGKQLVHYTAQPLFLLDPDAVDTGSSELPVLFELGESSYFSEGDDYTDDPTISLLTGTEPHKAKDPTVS

[11] = biological target: Induced myeloid leukemia cell differentiation protein Mcl-1 (Homo sapiens, UniProt Q07820); format: functional
Induced myeloid leukemia cell differentiation protein Mcl-1, sequence (Q07820 whole entry): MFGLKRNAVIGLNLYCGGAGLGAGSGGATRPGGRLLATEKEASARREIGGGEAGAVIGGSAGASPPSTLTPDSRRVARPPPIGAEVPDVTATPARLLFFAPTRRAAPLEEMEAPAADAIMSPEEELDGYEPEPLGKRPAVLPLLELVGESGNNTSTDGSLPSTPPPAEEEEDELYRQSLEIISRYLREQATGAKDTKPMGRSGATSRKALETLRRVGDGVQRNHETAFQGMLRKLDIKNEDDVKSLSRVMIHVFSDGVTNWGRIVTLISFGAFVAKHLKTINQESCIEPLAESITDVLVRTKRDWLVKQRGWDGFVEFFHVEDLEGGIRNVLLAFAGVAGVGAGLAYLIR

[12] = biological target: Cytochrome P450 2C19 (Homo sapiens, UniProt P33261); assay: Cytochrome panel assay with activity outcomes. Panel member name: p450-cyp2c19 Compounds with AC50 equal or less than 10 uM are considered active; format: functional; conditions: read-out: AC50
Cytochrome P450 2C19, sequence (P33261 whole entry): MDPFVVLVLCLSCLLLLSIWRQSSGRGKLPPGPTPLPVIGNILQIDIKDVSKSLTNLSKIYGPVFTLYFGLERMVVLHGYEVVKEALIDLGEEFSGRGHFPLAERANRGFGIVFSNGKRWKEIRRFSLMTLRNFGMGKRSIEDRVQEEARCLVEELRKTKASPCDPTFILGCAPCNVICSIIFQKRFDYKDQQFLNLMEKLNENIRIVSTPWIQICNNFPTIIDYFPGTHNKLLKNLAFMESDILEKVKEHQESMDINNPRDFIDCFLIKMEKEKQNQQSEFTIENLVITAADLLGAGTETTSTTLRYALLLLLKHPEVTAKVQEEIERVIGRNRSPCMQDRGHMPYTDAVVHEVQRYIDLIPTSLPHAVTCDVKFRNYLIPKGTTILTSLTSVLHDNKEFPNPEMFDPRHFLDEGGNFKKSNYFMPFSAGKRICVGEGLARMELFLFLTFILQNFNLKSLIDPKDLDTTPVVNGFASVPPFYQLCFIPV

[13] = Shn3 3'UTR reporter inhibitors, dose response, cell-based, Clone20 osteoblasts, firefly luciferase, cherry-picked (AID 624132); format: functional;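 further: firefly luciferase luminescence from reporter carrying the Shn3 3'UTR in osteoblasts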
[14] = biological target: T4, Cytochrome P450 1A2 (Homo sapiens, UniProt P05177);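 further: PubChem cytochrome P450 panel assay, CYP1A2 panel member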
T4 sequence (P05177 whole entry): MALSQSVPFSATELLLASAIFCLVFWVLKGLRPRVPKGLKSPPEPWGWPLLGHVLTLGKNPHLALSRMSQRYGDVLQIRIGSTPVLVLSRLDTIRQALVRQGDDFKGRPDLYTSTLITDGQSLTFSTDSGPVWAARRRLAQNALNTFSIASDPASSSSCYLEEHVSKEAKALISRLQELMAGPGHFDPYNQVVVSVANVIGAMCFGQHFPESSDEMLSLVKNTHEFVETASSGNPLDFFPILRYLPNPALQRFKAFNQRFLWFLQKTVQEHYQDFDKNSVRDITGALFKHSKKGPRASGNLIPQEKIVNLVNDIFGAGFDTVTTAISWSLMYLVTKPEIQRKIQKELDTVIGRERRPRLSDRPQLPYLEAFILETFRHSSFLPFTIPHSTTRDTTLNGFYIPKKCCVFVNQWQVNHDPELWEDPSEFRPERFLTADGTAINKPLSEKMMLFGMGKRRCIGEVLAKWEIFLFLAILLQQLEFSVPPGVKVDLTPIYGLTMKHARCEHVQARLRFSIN

[15] = biological target: Glyceraldehyde-3-phosphate dehydrogenase (Homo sapiens, UniProt P04406)
Glyceraldehyde-3-phosphate dehydrogenase, sequence (P04406 whole entry): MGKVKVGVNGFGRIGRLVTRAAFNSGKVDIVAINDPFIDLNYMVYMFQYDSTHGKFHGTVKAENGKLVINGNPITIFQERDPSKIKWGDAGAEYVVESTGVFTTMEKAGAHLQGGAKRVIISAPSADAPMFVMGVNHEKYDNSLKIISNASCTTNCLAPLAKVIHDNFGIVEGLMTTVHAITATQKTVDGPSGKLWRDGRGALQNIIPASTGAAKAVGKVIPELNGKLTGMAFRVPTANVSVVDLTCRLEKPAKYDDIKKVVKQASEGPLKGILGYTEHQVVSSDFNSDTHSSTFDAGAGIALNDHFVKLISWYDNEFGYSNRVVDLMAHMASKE

[16] = biological target: Cytochrome P450 2D6 (Homo sapiens, UniProt P10635);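 further: CYP2D6 member of a cytochrome P450 panel assay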
Cytochrome P450 2D6, sequence (P10635 whole entry): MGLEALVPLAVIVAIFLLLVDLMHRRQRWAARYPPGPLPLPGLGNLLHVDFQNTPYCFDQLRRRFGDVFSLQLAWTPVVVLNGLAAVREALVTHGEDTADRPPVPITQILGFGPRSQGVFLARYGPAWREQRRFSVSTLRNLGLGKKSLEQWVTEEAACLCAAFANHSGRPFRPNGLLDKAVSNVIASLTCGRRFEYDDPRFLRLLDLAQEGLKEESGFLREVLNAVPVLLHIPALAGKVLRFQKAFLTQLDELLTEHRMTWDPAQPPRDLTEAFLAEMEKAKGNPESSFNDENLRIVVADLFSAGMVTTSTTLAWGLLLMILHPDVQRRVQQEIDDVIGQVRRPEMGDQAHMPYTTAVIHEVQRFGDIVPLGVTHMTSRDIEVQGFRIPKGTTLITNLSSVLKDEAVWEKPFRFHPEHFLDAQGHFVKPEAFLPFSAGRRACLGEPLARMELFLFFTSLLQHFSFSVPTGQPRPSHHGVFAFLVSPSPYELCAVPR

[17] = Luminescence Cell-Based Dose Response HTS to Identify Activators of Luciferase Translation or Activity in H4 […] Cells. [Related pubchem assays: 1829 (Project Summary), 1814 (Primary HTS)]; format: functional
[18] = cells; format: functional, cell-based
[19] = test system: H4; assay: Luminescence Cell-Based Dose Response HTS to Identify Activators of 5'UTR Stem-Loop Driven Prion Protein mRNA Translation in H4 Neuroglioblastoma Cells. [Related pubchem assays: 1829 (Project Summary), 1814 (Primary HTS)]; format: functional; conditions: Homo sapiens
[20] = cells; format: functional, cell-based; remark: listed apart in the source
[21] = test system: H9c2; assay: cells; format: functional, cell-based; conditions: Rattus norvegicus, H9c2, Myocardium;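 further: confirmatory concentration-response retest of ultra-high-throughput screening hits for modulation of myocardial damage; cell death induced by hydrogen peroxide oxidative stress; compound pretreatment for 60 min then peroxide exposure for 2 h; potency is for protecting the cells against peroxide damage rather than for killing them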
[22] = biological target: Cytochrome P450 3A4 (Homo sapiens, UniProt P08684);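 further: CYP3A4 tested as one member of a cytochrome P450 panel screen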
[23] = biological target: T3, Heat shock factor protein 1; assay: inhibition of MG132-induced HSE-luciferase signal, confirmation, cell-based, NIH3T3, luminescence, dose retest (AID 2382); format: functional;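 further: NIH3T3 fibroblasts with HSF1-driven luciferase reporter stressed by proteasome inhibitor MG132; luminescence from HSF1-driven luciferase expression after 8 hours of MG132 stress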

Cytochrome P450 2C9, sequence (P11712 whole entry): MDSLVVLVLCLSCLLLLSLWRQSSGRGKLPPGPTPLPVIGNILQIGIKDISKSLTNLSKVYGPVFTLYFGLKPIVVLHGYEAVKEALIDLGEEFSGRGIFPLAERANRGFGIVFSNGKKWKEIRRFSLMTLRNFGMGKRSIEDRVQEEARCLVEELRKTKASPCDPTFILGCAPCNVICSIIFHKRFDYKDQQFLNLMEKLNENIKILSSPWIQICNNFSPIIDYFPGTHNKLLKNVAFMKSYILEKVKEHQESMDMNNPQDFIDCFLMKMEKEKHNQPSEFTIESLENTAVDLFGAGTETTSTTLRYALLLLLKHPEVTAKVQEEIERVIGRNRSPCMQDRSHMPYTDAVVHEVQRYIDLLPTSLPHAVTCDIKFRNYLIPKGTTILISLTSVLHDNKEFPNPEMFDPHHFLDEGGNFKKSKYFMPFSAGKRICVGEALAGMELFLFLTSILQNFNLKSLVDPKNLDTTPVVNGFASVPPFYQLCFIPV

SMILES: O=C(Cc1c[nH]c2ccccc12)OCC(=O)c1ccccc1
- AC50 [1]: inconclusive

SMILES: Cc1cc(N2CCN(C)CC2)nc2ccc(NC(=S)N3CCN(c4ccc(F)cc4)CC3)cc12
- AC50 [2]: 5.34 µM (active)
- IC50 [3]: > 20 µM (inactive)

SMILES: Cn1c(C(=O)NCCCN2CCN(c3ccccc3F)CC2)cc2c(O)nc3ccccc3c21
- AC50 [4]: 2.82 µM (active)
- AC50 [5]: 10.3 µM (active)
- AC50 [6]: 24.5 µM (active)
- AC50 [7]: 8.93 µM (active)

SMILES: O=C(Nc1cc(Cl)cc(Cl)c1)C(c1ccccc1)N1CCCCC1 (stereo not drawn)
- AC50 [4]: 3.35 µM (active)
- AC50 [5]: 8.47 µM (active)
- AC50 [6]: 7.36 µM (active)

SMILES: CCN(CC(=O)NCc1cccs1)S(=O)(=O)c1ccc([N+](=O)[O-])cc1
- IC50 [8]: 17.7 µM (active)

SMILES: C[C@@H]1NC(=O)[C@H](CCCN=C(N)N)NC(=O)c2cc([N+](=O)[O-])cc(I)c2NCCC[C@@H](C(N)=O)NC1=O
- AC50 [9]: 12.3 µM (active)

SMILES: Sc1[nH]cnc2c3cc(Cl)ccc3nc1-2
- AC50 [4]: 3.37 µM (active)
- AC50 [6]: 2.35 µM (active)

SMILES: COc1cc(COCC(O)CN2CCN(CCN3C(=O)c4cccc5cccc(c45)C3=O)CC2)cc(OC)c1OC (stereo not drawn)
- EC50 [10]: 59.2 µM (active)
- AC50 [9]: 3.54 µM (active)

SMILES: Cc1ccc(/C=C2\SC(=S)N(Cc3ccccc3)C2=O)o1
- IC50 [11]: 3.76 µM (not active)

SMILES: Cc1cnc(CNc2ncnc3ccc(-c4ccccc4CN(C)C)cc23)cn1
- AC50 [12]: 31.6 µM (inconclusive)
- AC50 [1]: inconclusive

SMILES: COc1ccc(C2N(S(=O)(=O)c3ccc(C)cc3)CCN2S(=O)(=O)c2ccc(C)cc2)cc1
- AC50 [4]: 3.05 µM (active)
- AC50 [5]: 0.715 µM (active)
- AC50 [6]: 6.47 µM (active)
- AC50 [7]: 4.68 µM (active)

SMILES: CCOc1ccc(NC(=O)N(CCN2CCOCC2)Cc2ccc3c(c2)CCCN3CC)cc1
- IC50 [11]: 0.852 µM (active)

SMILES: CCC(C)[C@H]1CN=C(S)N1CCc1cc(C(F)(F)F)cc(C(F)(F)F)c1 (stereo partly drawn)
- AC50 [13]: 21.6 µM (active)

SMILES: COc1ccc(CCNC(=O)CCC(=O)N2CCOc3ccc(Cl)cc32)cc1OC
- AC50 [13]: > 70 µM (inactive)

SMILES: Cc1cc(C(=O)OCC(=O)NCCCN2CCCC2=O)c2ccccc2n1
- AC50 [12]: 35.5 µM (inconclusive)
- AC50 [14]: 14.1 µM (inconclusive)
- AC50 [1]: inconclusive

SMILES: COc1ccc(S(=O)(=O)Nc2cccnc2)c(OC)c1
- IC50 [15]: > 100 µM (not active)

SMILES: Cc1nn(C(=O)CN2C(=O)c3ccccc3C2=O)c(C)c1Br
- AC50 [12]: 4.47 µM (inconclusive)
- AC50 [16]: 7.08 µM (inconclusive)
- AC50 [1]: inconclusive

SMILES: CN(C)C1=C(Cl)C(=O)N(c2ccc(C(F)(F)F)cc2)C1=O
- IC50 [15]: > 50 µM (inconclusive)

SMILES: CCOC(=O)N1CCN(C(=O)CN(C)S(=O)(=O)c2ccc3c(c2)C(C)(C)C(=O)N3C)CC1
- AC50 [12]: 3.16 µM (inconclusive)
- AC50 [1]: inconclusive

SMILES: Cc1ccc(-c2nnn(CC(=O)N(CC3CCCO3)C(C(=O)NC3CCCCC3)c3ccc(F)cc3)n2)o1 (stereo not drawn)
- AC50 [4]: 0.79 µM (active)
- AC50 [5]: 2.45 µM (active)
- AC50 [6]: 1.27 µM (active)
- AC50 [7]: 2.56 µM (active)

SMILES: NC[C@H](Cc1ccccc1)NCCc1cc(C(F)(F)F)cc(C(F)(F)F)c1
- IC50 [3]: > 20 µM (inactive)

SMILES: CN(C)CCNC(=O)c1cccc(-c2cnc3c(NC=O)cc(-c4cc(F)c(F)c(F)c4)cn23)c1
- AC50 [9]: 7.21 µM (active)

SMILES: O=C(NCC(F)(F)F)[C@@H]1c2ccccc2C(=O)N(CC23CC4CC(CC(C4)C2)C3)[C@H]1c1ccc(CO)cc1
- AC50 [4]: 0.304 µM (active)
- AC50 [7]: 2.43 µM (active)

SMILES: CN1CC[C@@H]2CN[C@H](c3ccccc3Br)C[C@@H]21
- AC50 [9]: 4.58 µM (active)

SMILES: CC(C)CC#Cc1ccc2c(c1)O[C@@H](CN(C)S(=O)(=O)c1ccc(F)cc1)[C@@H](C)CN([C@H](C)CO)S2(=O)=O
- AC50 [4]: 19.6 µM (active)
- AC50 [5]: 10.1 µM (active)
- AC50 [7]: 10.2 µM (active)

SMILES: C[N+](C)(C)CC(=O)N/N=C/c1c2ccccc2cc2ccccc12
- AC50 [9]: 4.16 µM (active)

SMILES: CN(C)/N=C/C=C1\CCC/C(=C/c2cccs2)C1=O
- EC50 [17]: 0.452 µM (active)
- EC50 [18]: > 350 µM (not active)
- EC50 [19]: > 120 µM (not active)
- EC50 [20]: 5.27 µM (active)

SMILES: Oc1cccc2c(O)nccc12
- IC50 [21]: 31.3 µM (inactive)
- AC50 [14]: 15.8 µM (inconclusive)
- AC50 [22]: 25.1 µM (inconclusive)
- AC50 [1]: inconclusive

SMILES: O=S(=O)(c1cccc2c(Cl)cccc12)N1CCCNCC1
- AC50 [16]: 39.8 µM (inconclusive) and 25.1 µM (inconclusive)
- AC50 [14]: 15.8 µM (inconclusive) and 31.6 µM (inconclusive)
- AC50 [1]: inconclusive

SMILES: O=C(NCCCCO)c1cc(-c2ccc(Cl)cc2Cl)n[nH]1
- IC50 [15]: > 10 µM (inconclusive)

SMILES: Cn1nc(N)c2c(-c3ccccc3)c(C#N)c(N)nc21
- EC50 [23]: > 195 µM (not active)
- IC50 [3]: > 20 µM (inactive)
